# Assay results published in patent publication US6875758B2, “Method of treating hyperlipidemic and hyperglycemic conditions in mammals using pregnadienols and pregnadienones” (Council of Scientific & Industrial Research, priority 1999, dated 2005).
# Key:
# [1] = tested on: hyperlipidemic rats (high fat diet); assay: Hypolipidemic activity in diet induced hyperlipidemic rats; format: in vivo; details: for LDL-Cholesterol: calculated
# Method: Twenty three normal male rats average weight 110-120 g were taken for study and were divided into four groups. Group l: animals received special diet and 3β-hydroxypregna-5,16-dien-20-one (2) 50 mg/kg p.o. in 1% gum acacia. Group II: animals received 3β-hydroxypregna-5,16-dien-20-one (2), 100 mg/kg p.o. in 1% gum acacia and special diet. Group III: animals received special fat diet and 1% gum acacia and served as control. Group IV: animals were fed with stock diet and served as normal control. All animals were sacrificed at the end of 36 days. Blood was drawn from the tail at 10 days and from the aorta at the time of sacrifice for estimation of serum cholesterol, triglycerides and HDL-cholesterol. LDL-cholesterol was calculated as described. [Roschlau, P. In: Methods of Enzymatic Analysis 4th ed., H. U. Bergmeyer, Ed (Academic Press, New York) 1975 p 1890; Wahlefield, W. A. In: Methods of Enzymatic Analysis, 4th ed.; H. U. Bergmeyer, Ed. (Academic Press, New York) 1974 p 1831.]
# [2] = tested on: streptozotocin induced diabetic rats; assay: Hypoglycemic activity in streptozotocin induced hyperglycemic rats; format: in vivo; details: 100 mg/kg p.o.
# Method: Hyperglycemia in rats was produced by streptozotocin treatment. The animals showing blood glucose levels between 250-350 mg/dl were selected. Blood samples were collected after treatment at intervals and blood glucose levels were estimated immediately.
# [3] = Hydroxy (OH) radical formation in nonenzymatic system (Fe2+, ascorbate, H2O2, deoxyribose); format: biochemical
# Triton treated rats = assay: Cholesterol lowering in Triton treated rats; format: in vivo, Charles Foster rats; details: Rattus norvegicus, ip; 50 mg/kg i.p.; read-out: % Change S. Chol.
# Text: The primary hypolipidemic effect of these compounds was established in triton induced hyperlipidemia in Charles Foster rats. […] The cholesterol lowering effect of some representative compounds of pregrenadienols and pregrenadienones as compared to clofibrate and gugulsterone in triton treated Charles Foster rats is described in Table-2.
# Human serum LDL = assay: Cu2+ induced oxidation of low density lipoprotein (TBA reactive lipid peroxides); format: biochemical; details: for MDA (Exp.): 16 hr at 37° C., pH 7.4
# Method: Human serum LDL was oxidized with Cu^′2 in different concentrations of test compound in 0.05 mole PBS, pH 7.4 for 16 hr at 37° C. Thiobarbituric acid reactive lipid peroxides are measured by standard procedure. […] Cu^′2 induced oxidation in LDL lipids are mainly due to the free OH radical during incubation.
# [4] = tested on: cholesterol fed hyperlipidemic rats; assay: Lipid peroxidation in cholesterol fed hyperlipidemic rats; format: in vivo
structure (smiles),measurement,setting,value
"CC(=O)C1=CC[C@H]2[C@@H]3CC=C4C[C@@H](O)CC[C@]4(C)[C@H]3CC[C@]12C [Compound 2, 3β-Hydroxypregna-5,16-dien-20-one]",HDL-Cholesterol,"[1]; 50 mg/kg + HFD, Day 0",34.8 ± 5.8 mg %
same,LDL-Cholesterol,"[1]; 50 mg/kg + HFD, Day 0",24.5 ± 14.2 mg %
same,HDL-Cholesterol,"[1]; 50 mg/kg + HFD, Day 36",37.57 ± 2.8 mg %
same,HDL-Cholesterol % Change,"[1]; 50 mg/kg + HFD, Day 36",181%
same,LDL-Cholesterol,"[1]; 50 mg/kg + HFD, Day 36",123.87 ± 14.0 mg %
same,Serum Cholesterol,"[1]; 50 mg/kg p.o. + HFD, day 0",69.1 ± 9.9 mg %
same,Serum Triglycerides,"[1]; 50 mg/kg p.o. + HFD, day 0",48.8 ± 7.0 mg %
same,Serum Cholesterol,"[1]; 50 mg/kg p.o. + HFD, day 10",212.4 ± 23.8 mg %
same,"Serum Cholesterol % Decrease (compared to group III, HFD)","[1]; 50 mg/kg p.o. + HFD, day 10",16%
same,Serum Cholesterol,"[1]; 50 mg/kg p.o. + HFD, day 36",165 ± 26.7 mg %
same,"Serum Cholesterol % Decrease (compared to group III, HFD)","[1]; 50 mg/kg p.o. + HFD, day 36",31%
same,Serum Triglycerides,"[1]; 50 mg/kg p.o. + HFD, day 36",61.5 ± 10.5 mg %
same,"Serum Triglycerides % Decrease (compared to group III, HFD)","[1]; 50 mg/kg p.o. + HFD, day 36",55%
same,HDL-Cholesterol,"[1]; 100 mg/kg + HFD, Day 0",43.4 ± 8.3 mg %
same,LDL-Cholesterol,"[1]; 100 mg/kg + HFD, Day 0",10.02 ± 8.5 mg %
same,HDL-Cholesterol,"[1]; 100 mg/kg + HFD, Day 36",47.2 ± 3.7 mg %
same,HDL-Cholesterol % Change,"[1]; 100 mg/kg + HFD, Day 36",161%
same,LDL-Cholesterol,"[1]; 100 mg/kg + HFD, Day 36",48.64 ± 5.1 mg %
same,Serum Cholesterol,"[1]; 100 mg/kg p.o. + HFD, day 0",60.8 ± 10.3 mg %
same,Serum Triglycerides,"[1]; 100 mg/kg p.o. + HFD, day 0",50 ± 7.1 mg %
same,Serum Cholesterol,"[1]; 100 mg/kg p.o. + HFD, day 10",145.5 ± 10.6 mg %
same,"Serum Cholesterol % Decrease (compared to group III, HFD)","[1]; 100 mg/kg p.o. + HFD, day 10",48%
same,Serum Cholesterol,"[1]; 100 mg/kg p.o. + HFD, day 36",106.4 ± 4.6 mg %
same,"Serum Cholesterol % Decrease (compared to group III, HFD)","[1]; 100 mg/kg p.o. + HFD, day 36",59%
same,Serum Triglycerides,"[1]; 100 mg/kg p.o. + HFD, day 36",53.0 ± 7.5 mg %
same,"Serum Triglycerides % Decrease (compared to group III, HFD)","[1]; 100 mg/kg p.o. + HFD, day 36",62%
same,Blood Glucose Level,[2]; 0 hr,274 ± 9 mg/dL
same,% lowering from zero hour value (blood glucose),[2]; 1 hr,(11.3) %
same,% lowering from zero hour value (blood glucose),[2]; 2 hr,(15.6) %
same,% lowering from zero hour value (blood glucose),[2]; 3 hr,(25.9) %
same,% lowering from zero hour value (blood glucose),[2]; 4 hr,(33.2) %
same,% lowering from zero hour value (blood glucose),[2]; 5 hr,(42.7) %
same,% lowering from zero hour value (blood glucose),[2]; 6 hr,(51.4) %
same,% lowering from zero hour value (blood glucose),[2]; 7 hr,(62.7) %
same,% lowering from zero hour value (blood glucose),[2]; 8 hr,(66.7) %
same,% lowering from zero hour value (blood glucose),[2]; 24 hr,(52.2) %
same,generation of OH radical (in words),[3],inhibits the generation of OH radical in concentration dependent manner
same,% inhibition of OH radical formation,[3]; 5 μmol/ml,(28) %
same,OH radical formation,[3]; 5 μmol/ml,65.0 ± 5.4 nmol MDA/hr
same,% inhibition of OH radical formation,[3]; 10 μmol/ml,(42) %
same,OH radical formation,[3]; 10 μmol/ml,52.8 ± 4.2 nmol MDA/hr
same,% inhibition of OH radical formation,[3]; 20 μmol/ml,(74) %
same,OH radical formation,[3]; 20 μmol/ml,23.3 ± 1.8 nmol MDA/hr
same,% inhibition of OH radical formation,[3]; 30 μmol/ml,(87) %
same,OH radical formation,[3]; 30 μmol/ml,11.7 ± 1.3 nmol MDA/hr
same,% inhibition of OH radical formation,[3]; 40 μmol/ml,(88) %
same,OH radical formation,[3]; 40 μmol/ml,10.4 ± 2.0 nmol MDA/hr
same,% inhibition of OH radical formation,[3]; 50 μmol/ml,(90) %
same,OH radical formation,[3]; 50 μmol/ml,9.9 ± 0.8 nmol MDA/hr
same,change in vivo at 50 mg/kg,Triton treated rats,-46%
same,% inhibition of LDL oxidation,Human serum LDL; 2.5 μmol/ml,(26) %
same,MDA (Exp.),Human serum LDL; 2.5 μmol/ml,41.4 ± 1.7 n mol MDA/mg protein
same,% inhibition of LDL oxidation,Human serum LDL; 5.0 μmol/ml,(49) %
same,MDA (Exp.),Human serum LDL; 5.0 μmol/ml,28.7 ± 4.0 n mol MDA/mg protein
same,% inhibition of LDL oxidation,Human serum LDL; 10.0 μmol/ml,(74) %
same,MDA (Exp.),Human serum LDL; 10.0 μmol/ml,10.6 ± 0.5 n mol MDA/mg protein
same,% inhibition of LDL oxidation,Human serum LDL; 20 μmol/ml,(89) %
same,MDA (Exp.),Human serum LDL; 20 μmol/ml,4.0 ± 0.5 n mol MDA/mg protein
same,generation of LDL lipid peroxide (in words),Human serum LDL; tested concentrations,inhibit the generation of LDL lipid peroxide in concentration dependent manner
same,HDL lipid peroxides,[4]; cholesterol + drug 25 mg/kg,125 ± 10 n mol MDA/dl
same,HDL lipid peroxides % reversal as compared with cholesterol fed rats,[4]; cholesterol + drug 25 mg/kg,(−9) %
same,LDL lipid peroxides,[4]; cholesterol + drug 25 mg/kg,421 ± 20 n mol MDA/dl
same,LDL lipid peroxides % reversal as compared with cholesterol fed rats,[4]; cholesterol + drug 25 mg/kg,(−30) %
same,Liver lipid peroxides,[4]; cholesterol + drug 25 mg/kg,212 ± 16 n mol MDA/g
same,Liver lipid peroxides % reversal as compared with cholesterol fed rats,[4]; cholesterol + drug 25 mg/kg,(−23) %
same,Serum lipid peroxides,[4]; cholesterol + drug 25 mg/kg,931.5 ± 51 n mol MDA/dl
same,Serum lipid peroxides % reversal as compared with cholesterol fed rats,[4]; cholesterol + drug 25 mg/kg,(−24) %
same,VLDL lipid peroxides,[4]; cholesterol + drug 25 mg/kg,310 ± 15 n mol MDA/dl
same,VLDL lipid peroxides % reversal as compared with cholesterol fed rats,[4]; cholesterol + drug 25 mg/kg,(−18) %
same,"lipid peroxide levels in serum VLDL, LDL and liver (in words)","[4]; cholesterol fed animals, simultaneous treatment",significant reversal
